Reference: patent publication US11149016B2, “S-substituted-2-amino-3-mercaptopropionate derivative, preparation method and application thereof” (JIANGSU TASLY DIYI PHARMACEUTICAL CO., LTD., priority 2016, dated 2021)

System: mice with memory disorders caused by scopolamine
Experiment: Passive avoidance (darkroom) test in mice with scopolamine-injured memory
Assay type: in vivo, ICR mice
Conditions: for Error times (number of times entering the darkroom within 3 minutes) / Latency (s) of entering the darkroom: intragastric, 7 days, scopolamine 3 mg/kg 20 minutes before testing, x ± s, n = 10; for Activity compared with SPRC (in words) / Effect on error times of mice with memory impairment entering the darkroom (in words) / Effect on latency of mice with memory impairment entering the darkroom (in words): passive avoidance test, scopolamine model
Description: Memory functions of mice are injured by scopolamine, and effects of improvement of tested materials on the memory functions of the mice are observed.
Animals: ICR mice, male, 20-22 g, purchased from Institute for Experimental Animals in Chinese Academy of Medical Sciences, certification number: SCXK (JING) 2014-0004.
Agent: scopolamine (J&K Company), donepezil reagent (TCI Company).
Tested materials: 4 tested materials and a positive-drug donepezil are provided by Tasly Group. Dosage of administration: administered by tested materials according to 80 mg/kg weight, administered by donepezil according to 5 mg/kg weight, an administration volume of 2 ml.
purchasing 60 mice, and enabling the mice to adapt to an environment for three days; dividing the mice into 6 groups randomly, wherein a blank control group includes 10 mice, the rest mice are contained in administration groups, and each administration group includes 10 mice; respectively administering the tested materials and positive drug, performing intragastric administration for 7 days, putting the mice into a darkroom to adapt to the environment on the fifth day during administration, electrifying the darkroom on the sixth day during administration, training the mice to elude the darkroom, and training each mouse once; testing on the seventh day, administering with scopolamine by 3 mg/kg within 20 minutes before testing, and recording time of the mice entering the darkroom for the first time and a number of times of the mice entering the darkroom within 3 minutes during testing.
Passive avoidance response is a common method used commonly to detect learning and memory functions of small animals. With respect to a passive avoidance test, by means of a feature that rodents like darkness and keep in a dark place, the rodents are stimulated in the dark to escape to a bright place to acquire memory, and the passive avoidance test is a type of passive avoidance response experiments. The passive avoidance test has a short experimental period and is applicable to rapid drug screening. The scopolamine may inhibit release of acetyl choline, so as to form learning and memory disorders. The passive avoidance test is a stable learning and memory disorder modeling method and has excellent model reproducibility.

[1] = positive drug donepezil 5 mg/kg
[2] = tested materials 80 mg/kg, time of first entry into darkroom

Row | Structure (SMILES) | Error times (number of times entering the darkroom within 3 minutes) [1] | Latency (s) of entering the darkroom [1] [s] | Latency (s) of entering the darkroom [2] [s] | Error times (number of times entering the darkroom within 3 minutes) (tested materials 80 mg/kg) | Activity compared with SPRC (in words) | Effect on error times of mice with memory impairment entering the darkroom (in words) | Effect on latency of mice with memory impairment entering the darkroom (in words)
1 | COc1cc2c(cc1OC)C(=O)C(CC1CCN(Cc3ccccc3)CC1)C2 (centres unmarked) [Donepezil, donepezil, reference compound] | 6.8 ± 5.4 | 49.5 ± 71.6 | – | – | – | – | –
2 | C#CCSC[C@H](N)C(=O)O [SPRC, S-propargyl-cysteine, reference compound] | – | – | 50.5 ± 69.7 | 3.8 ± 4.0 | – | – | –
3 | C#CCSCC(N)C(=O)Oc1ccc(-c2cc(=S)ss2)cc1 (centres unmarked) [Va, 2-amino-3-propinylmercaptopropionic acid-4-(3-thio-3H-1,2-dithio-5-alkenyl) phenol ester] | – | – | 55.8 ± 61.3 | 4.7 ± 4.6 | – | – | –
4 | C#CCSCC(N)C(=O)Oc1ccc(C=O)cc1 (centres unmarked) [Vb, 2-amino-3-propinylmercaptopropionic acid-4-formyl phenol ester] | – | – | 53.2 ± 59.4 | 4.1 ± 3.7 | – | – | –
5 | C#CCSCC(N)C(=O)Oc1ccc(CO)cc1 (centres unmarked) [Vc, 2-amino-3-propinylmercaptopropionic acid-4-benzyl alcohol phenol ester] | – | – | 66.8 ± 57.1 | 2.4 ± 1.3 | obviously better than the activity of the SPRC | trend of decreasing the error times | trend of increasing the latency
6 | C#CCSCC(N)C(=O)OCc1ccc(OC(=O)C(N)CSCC#C)cc1 (centres unmarked) [Vd, bis(2-amino-3-propinylmercaptopropionic acid)-4-benzyl alcohol-1-phenol diester] | – | – | 63.6 ± 69.5 | 2.6 ± 3.3 | obviously better than the activity of the SPRC | trend of decreasing the error times | trend of increasing the latency
7 | C#CCSCC(N)C(=O)OCCCC[N+](=O)[O-] (centres unmarked) [Vf, 2-amino-3-propinylmercaptopropionic acid-4-nitro-1-butanol ester] | – | – | 60.2 ± 61.3 | 2.4 ± 2.3 | obviously better than the activity of the SPRC | trend of decreasing the error times | trend of increasing the latency
